Data: PubChem BioAssay (NCI)
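Each compound was tested at five concentrations against cells in 96-well plates for 48 hours. GI50 marks 50% less growth. TGI marks complete inhibition of growth.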

Legend:
Test in all cases: DTP human tumour cell line panel, 48 h
SK-OV-3 ovarian = tested on: SK-OV-3 ovarian
NCI/ADR-RES ovarian = tested on: NCI/ADR-RES ovarian
HS 578T breast = tested on: HS 578T breast
SNB-75 CNS = tested on: SNB-75 CNS
SF-539 CNS = tested on: SF-539 CNS
SF-295 CNS = tested on: SF-295 CNS
HCC-2998 colon = tested on: HCC-2998 colon
UO-31 renal = tested on: UO-31 renal
SW-620 colon = tested on: SW-620 colon
CCRF-CEM leukemia = tested on: CCRF-CEM leukemia
A498 renal = tested on: A498 renal
TK-10 renal = tested on: TK-10 renal
HT29 colon = tested on: HT29 colon
SF-268 CNS = tested on: SF-268 CNS
PC-3 prostate = tested on: PC-3 prostate
SK-MEL-5 melanoma = tested on: SK-MEL-5 melanoma
RPMI-8226 leukemia = tested on: RPMI-8226 leukemia
SNB-19 CNS = tested on: SNB-19 CNS
HOP-92 NSCLC = tested on: HOP-92 NSCLC
UACC-62 melanoma = tested on: UACC-62 melanoma
NCI-H226 lung = tested on: NCI-H226 lung
DU-145 prostate = tested on: DU-145 prostate
HL-60(TB) leukemia = tested on: HL-60(TB) leukemia
SK-MEL-2 melanoma = tested on: SK-MEL-2 melanoma
KM12 colon = tested on: KM12 colon
COLO 205 colon = tested on: COLO 205 colon
OVCAR-3 ovarian = tested on: OVCAR-3 ovarian
LOX IMVI melanoma = tested on: LOX IMVI melanoma
NCI-H460 lung = tested on: NCI-H460 lung
SK-MEL-28 melanoma = tested on: SK-MEL-28 melanoma
OVCAR-5 ovarian = tested on: OVCAR-5 ovarian
NCI-H522 lung = tested on: NCI-H522 lung
HCT-116 colon = tested on: HCT-116 colon
786-0 renal = tested on: 786-0 renal
K-562 leukemia = tested on: K-562 leukemia
UACC-257 melanoma = tested on: UACC-257 melanoma
CAKI-1 renal = tested on: CAKI-1 renal
SN12C renal = tested on: SN12C renal
MDA-MB-435 = tested on: MDA-MB-435
MDA-MB-231 breast = tested on: MDA-MB-231 breast
RXF 393 renal = tested on: RXF 393 renal
OVCAR-8 ovarian = tested on: OVCAR-8 ovarian
HOP-62 NSCLC = tested on: HOP-62 NSCLC
EKVX NSCLC = tested on: EKVX NSCLC
MALME-3M melanoma = tested on: MALME-3M melanoma
M14 melanoma = tested on: M14 melanoma
BT-549 breast = tested on: BT-549 breast
ACHN renal = tested on: ACHN renal
A549 NSCLC = tested on: A549 NSCLC
SR leukemia = tested on: SR leukemia
MOLT-4 leukemia = tested on: MOLT-4 leukemia
MCF7 breast = tested on: MCF7 breast
HCT-15 colon = tested on: HCT-15 colon
U251 CNS = tested on: U251 CNS
NCI-H23 lung = tested on: NCI-H23 lung
T-47D breast = tested on: T-47D breast
OVCAR-4 ovarian = tested on: OVCAR-4 ovarian
IGROV1 ovarian = tested on: IGROV1 ovarian

SMILES: CN1CCN(c2ccc(NC(=O)c3cncnc3Nc3ccc4c(ccn4Cc4cccc(F)c4)c3)cc2)CC1
- GI50 (SK-OV-3 ovarian): 5.09 µM
- TGI (SK-OV-3 ovarian): 9.78 µM
- GI50 (NCI/ADR-RES ovarian): 4.81 µM
- TGI (NCI/ADR-RES ovarian): 11 µM
- GI50 (HS 578T breast): 3.63 µM
- TGI (HS 578T breast): 11.8 µM
- GI50 (SNB-75 CNS): 4.27 µM
- TGI (SNB-75 CNS): 8.51 µM
- GI50 (SF-539 CNS): 1.35 µM
- TGI (SF-539 CNS): 5.54 µM
- GI50 (SF-295 CNS): 5.41 µM
- TGI (SF-295 CNS): 10.5 µM
- GI50 (HCC-2998 colon): 3.03 µM
- TGI (HCC-2998 colon): 7.4 µM
- GI50 (UO-31 renal): 3.8 µM
- TGI (UO-31 renal): 7.83 µM
- GI50 (SW-620 colon): 0.828 µM
- TGI (SW-620 colon): 2.35 µM
- GI50 (CCRF-CEM leukemia): 0.901 µM
- TGI (CCRF-CEM leukemia): 2.66 µM
- GI50 (A498 renal): 2.16 µM
- TGI (A498 renal): 6.76 µM
- GI50 (TK-10 renal): 5.87 µM
- TGI (TK-10 renal): 11.1 µM
- GI50 (HT29 colon): 0.922 µM
- TGI (HT29 colon): 2.9 µM
- GI50 (SF-268 CNS): 4.3 µM
- TGI (SF-268 CNS): 9.17 µM
- GI50 (PC-3 prostate): 2.06 µM
- TGI (PC-3 prostate): 6.74 µM
- GI50 (SK-MEL-5 melanoma): 1.56 µM
- TGI (SK-MEL-5 melanoma): 5.91 µM
- GI50 (RPMI-8226 leukemia): 0.754 µM
- TGI (RPMI-8226 leukemia): 1.79 µM
- GI50 (SNB-19 CNS): 4.42 µM
- TGI (SNB-19 CNS): 8.96 µM
- GI50 (HOP-92 NSCLC): 3.54 µM
- TGI (HOP-92 NSCLC): 8.42 µM
- GI50 (UACC-62 melanoma): 4.06 µM
- TGI (UACC-62 melanoma): 8.25 µM
- GI50 (NCI-H226 lung): 4.86 µM
- TGI (NCI-H226 lung): 11.6 µM
- GI50 (DU-145 prostate): 3.82 µM
- TGI (DU-145 prostate): 7.87 µM
- GI50 (HL-60(TB) leukemia): 0.673 µM
- TGI (HL-60(TB) leukemia): 1.4 µM
- GI50 (SK-MEL-2 melanoma): 5.2 µM
- TGI (SK-MEL-2 melanoma): 10.7 µM
- GI50 (KM12 colon): 2.33 µM
- TGI (KM12 colon): 6.76 µM
- GI50 (COLO 205 colon): 0.905 µM
- TGI (COLO 205 colon): 2.64 µM
- GI50 (OVCAR-3 ovarian): 4.08 µM
- TGI (OVCAR-3 ovarian): 8.48 µM
- GI50 (LOX IMVI melanoma): 0.591 µM
- TGI (LOX IMVI melanoma): 1.16 µM
- GI50 (NCI-H460 lung): 1.35 µM
- TGI (NCI-H460 lung): 4.99 µM
- GI50 (SK-MEL-28 melanoma): 0.533 µM
- TGI (SK-MEL-28 melanoma): 1.01 µM
- GI50 (OVCAR-5 ovarian): 3.42 µM
- TGI (OVCAR-5 ovarian): 7.32 µM
- GI50 (NCI-H522 lung): 1.63 µM
- TGI (NCI-H522 lung): 6.59 µM
- GI50 (HCT-116 colon): 1 µM
- TGI (HCT-116 colon): 3.55 µM
- GI50 (786-0 renal): 0.66 µM
- TGI (786-0 renal): 1.37 µM
- GI50 (K-562 leukemia): 0.55 µM
- TGI (K-562 leukemia): 1.2 µM
- GI50 (UACC-257 melanoma): 0.68 µM
- TGI (UACC-257 melanoma): 1.45 µM
- GI50 (CAKI-1 renal): 3.6 µM
- TGI (CAKI-1 renal): 7.75 µM
- GI50 (SN12C renal): 3.83 µM
- TGI (SN12C renal): 8.15 µM
- GI50 (MDA-MB-435): 0.625 µM
- TGI (MDA-MB-435): 1.2 µM
- GI50 (MDA-MB-231 breast): 1.34 µM
- TGI (MDA-MB-231 breast): 5.03 µM
- GI50 (RXF 393 renal): 0.707 µM
- TGI (RXF 393 renal): 3.77 µM
- GI50 (OVCAR-8 ovarian): 3.8 µM
- TGI (OVCAR-8 ovarian): 10.6 µM
- GI50 (HOP-62 NSCLC): 3.9 µM
- TGI (HOP-62 NSCLC): 8.84 µM
- GI50 (EKVX NSCLC): 4.78 µM
- TGI (EKVX NSCLC): 9.37 µM
- GI50 (MALME-3M melanoma): 0.524 µM
- TGI (MALME-3M melanoma): 0.976 µM
- GI50 (M14 melanoma): 0.616 µM
- TGI (M14 melanoma): 1.22 µM
- GI50 (BT-549 breast): 5.23 µM
- TGI (BT-549 breast): 9.78 µM
- GI50 (ACHN renal): 1.73 µM
- TGI (ACHN renal): 5.89 µM
- GI50 (A549 NSCLC): 2.15 µM
- TGI (A549 NSCLC): 6.59 µM
- GI50 (SR leukemia): 0.655 µM
- TGI (SR leukemia): 1.96 µM
- GI50 (MOLT-4 leukemia): 0.922 µM
- TGI (MOLT-4 leukemia): 3.14 µM
- GI50 (MCF7 breast): 1.15 µM
- TGI (MCF7 breast): 5.02 µM
- GI50 (HCT-15 colon): 0.943 µM
- TGI (HCT-15 colon): 4 µM
- GI50 (U251 CNS): 1.3 µM
- TGI (U251 CNS): 4.92 µM
- GI50 (NCI-H23 lung): 4.35 µM
- TGI (NCI-H23 lung): 9.14 µM
- GI50 (T-47D breast): 2.03 µM
- TGI (T-47D breast): 8.15 µM
- GI50 (OVCAR-4 ovarian): 3.97 µM
- TGI (OVCAR-4 ovarian): 8.66 µM
- GI50 (IGROV1 ovarian): 2.29 µM
- TGI (IGROV1 ovarian): 6.92 µM
